{"source": "ChEMBL document CHEMBL1201862", "about": "“PubChem BioAssay data set” (2004)", "key": {"[1]": {"assay": "HGIII-sPLA2 enzyme inhibition potency – biochemical, QFRET, IC50, dose response (AID 743457);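 further: green fluorescence rise as the enzyme cleaves BODIPY PC-A2 in liposomes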"}, "[2]": {"target": "T1, Oxysterols receptor LXR-beta (Homo sapiens, UniProt P55055)", "T1 sequence (P55055 whole entry)": "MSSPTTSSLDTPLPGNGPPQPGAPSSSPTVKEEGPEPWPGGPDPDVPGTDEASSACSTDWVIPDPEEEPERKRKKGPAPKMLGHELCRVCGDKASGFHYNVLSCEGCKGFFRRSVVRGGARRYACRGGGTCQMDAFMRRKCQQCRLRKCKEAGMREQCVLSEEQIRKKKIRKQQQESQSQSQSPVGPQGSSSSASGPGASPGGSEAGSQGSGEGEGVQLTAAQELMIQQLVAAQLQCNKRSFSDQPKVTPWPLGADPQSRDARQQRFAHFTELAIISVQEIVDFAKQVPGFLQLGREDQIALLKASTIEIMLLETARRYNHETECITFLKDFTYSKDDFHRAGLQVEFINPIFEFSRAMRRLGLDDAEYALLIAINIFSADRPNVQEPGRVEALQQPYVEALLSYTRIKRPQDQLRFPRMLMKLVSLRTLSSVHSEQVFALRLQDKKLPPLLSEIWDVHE", "assay_type": "functional, cell-based"}, "[3]": {"assay": "general mammalian cell viability loss – inhibitor set, cherry-pick, set 2, cytotoxicity control for miR-122 modulator project, dose response (AID 720697)", "assay_type": "functional, cell-based"}, "Protein skinhead-1": {"target": "T2, Protein skinhead-1 (Caenorhabditis elegans, UniProt P34707)", "T2 sequence (P34707 whole entry)": "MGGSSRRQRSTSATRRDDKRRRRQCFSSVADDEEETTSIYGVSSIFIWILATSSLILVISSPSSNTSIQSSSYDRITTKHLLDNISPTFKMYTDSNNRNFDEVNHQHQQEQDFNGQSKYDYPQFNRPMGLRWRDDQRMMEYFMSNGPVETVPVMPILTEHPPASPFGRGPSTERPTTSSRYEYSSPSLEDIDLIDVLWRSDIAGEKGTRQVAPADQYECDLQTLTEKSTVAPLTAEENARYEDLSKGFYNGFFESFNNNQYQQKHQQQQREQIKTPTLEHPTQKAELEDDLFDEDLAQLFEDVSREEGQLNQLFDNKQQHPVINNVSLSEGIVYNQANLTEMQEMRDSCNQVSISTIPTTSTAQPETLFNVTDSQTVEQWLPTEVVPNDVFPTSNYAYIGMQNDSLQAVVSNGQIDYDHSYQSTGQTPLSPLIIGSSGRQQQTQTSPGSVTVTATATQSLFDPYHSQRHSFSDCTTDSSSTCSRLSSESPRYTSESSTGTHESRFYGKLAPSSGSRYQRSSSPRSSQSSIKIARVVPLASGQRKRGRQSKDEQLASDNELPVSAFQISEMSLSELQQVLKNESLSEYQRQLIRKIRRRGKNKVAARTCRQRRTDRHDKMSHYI", "assay_type": "functional"}, "[4]": {"target": "T1, Oxysterols receptor LXR-beta", "assay_type": "functional, cell-based", "remark": "listed apart in the source"}, "[5]": {"assay": "viability loss in HepG2 hepatoma cells – cell-based, ATP luminescence, cherry-pick, activator set 2, cytotoxicity control, dose response (AID 1053143)", "assay_type": "functional"}, "[6]": {"target": "T3, Mannose-6-phosphate isomerase (Homo sapiens, UniProt P34949)", "T3 sequence (P34949 whole entry)": "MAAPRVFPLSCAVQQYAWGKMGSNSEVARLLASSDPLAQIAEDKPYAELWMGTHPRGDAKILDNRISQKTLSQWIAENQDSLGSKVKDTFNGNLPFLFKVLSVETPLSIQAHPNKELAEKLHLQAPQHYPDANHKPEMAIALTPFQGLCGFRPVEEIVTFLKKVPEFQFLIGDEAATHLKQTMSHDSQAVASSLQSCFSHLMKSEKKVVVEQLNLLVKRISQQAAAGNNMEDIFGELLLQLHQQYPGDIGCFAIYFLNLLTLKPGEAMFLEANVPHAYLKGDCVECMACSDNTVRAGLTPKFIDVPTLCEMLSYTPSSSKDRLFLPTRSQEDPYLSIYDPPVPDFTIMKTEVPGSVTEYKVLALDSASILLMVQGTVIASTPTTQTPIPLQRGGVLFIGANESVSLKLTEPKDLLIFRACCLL", "assay": "MPI inhibition at elevated mannose 6-phosphate – biochemical, fluorescence intensity, high mannose 6-phosphate, primary screen (AID 1220)"}, "[7]": {"target": "T3, Mannose-6-phosphate isomerase", "assay": "MPI enzyme activity inhibition – biochemical, fluorescence intensity, coupled assay, primary screen (AID 1209)"}, "[8]": {"target": "T4, Histone-lysine N-methyltransferase NSD2 (Homo sapiens, UniProt O96028)", "T4 sequence (O96028 whole entry)": "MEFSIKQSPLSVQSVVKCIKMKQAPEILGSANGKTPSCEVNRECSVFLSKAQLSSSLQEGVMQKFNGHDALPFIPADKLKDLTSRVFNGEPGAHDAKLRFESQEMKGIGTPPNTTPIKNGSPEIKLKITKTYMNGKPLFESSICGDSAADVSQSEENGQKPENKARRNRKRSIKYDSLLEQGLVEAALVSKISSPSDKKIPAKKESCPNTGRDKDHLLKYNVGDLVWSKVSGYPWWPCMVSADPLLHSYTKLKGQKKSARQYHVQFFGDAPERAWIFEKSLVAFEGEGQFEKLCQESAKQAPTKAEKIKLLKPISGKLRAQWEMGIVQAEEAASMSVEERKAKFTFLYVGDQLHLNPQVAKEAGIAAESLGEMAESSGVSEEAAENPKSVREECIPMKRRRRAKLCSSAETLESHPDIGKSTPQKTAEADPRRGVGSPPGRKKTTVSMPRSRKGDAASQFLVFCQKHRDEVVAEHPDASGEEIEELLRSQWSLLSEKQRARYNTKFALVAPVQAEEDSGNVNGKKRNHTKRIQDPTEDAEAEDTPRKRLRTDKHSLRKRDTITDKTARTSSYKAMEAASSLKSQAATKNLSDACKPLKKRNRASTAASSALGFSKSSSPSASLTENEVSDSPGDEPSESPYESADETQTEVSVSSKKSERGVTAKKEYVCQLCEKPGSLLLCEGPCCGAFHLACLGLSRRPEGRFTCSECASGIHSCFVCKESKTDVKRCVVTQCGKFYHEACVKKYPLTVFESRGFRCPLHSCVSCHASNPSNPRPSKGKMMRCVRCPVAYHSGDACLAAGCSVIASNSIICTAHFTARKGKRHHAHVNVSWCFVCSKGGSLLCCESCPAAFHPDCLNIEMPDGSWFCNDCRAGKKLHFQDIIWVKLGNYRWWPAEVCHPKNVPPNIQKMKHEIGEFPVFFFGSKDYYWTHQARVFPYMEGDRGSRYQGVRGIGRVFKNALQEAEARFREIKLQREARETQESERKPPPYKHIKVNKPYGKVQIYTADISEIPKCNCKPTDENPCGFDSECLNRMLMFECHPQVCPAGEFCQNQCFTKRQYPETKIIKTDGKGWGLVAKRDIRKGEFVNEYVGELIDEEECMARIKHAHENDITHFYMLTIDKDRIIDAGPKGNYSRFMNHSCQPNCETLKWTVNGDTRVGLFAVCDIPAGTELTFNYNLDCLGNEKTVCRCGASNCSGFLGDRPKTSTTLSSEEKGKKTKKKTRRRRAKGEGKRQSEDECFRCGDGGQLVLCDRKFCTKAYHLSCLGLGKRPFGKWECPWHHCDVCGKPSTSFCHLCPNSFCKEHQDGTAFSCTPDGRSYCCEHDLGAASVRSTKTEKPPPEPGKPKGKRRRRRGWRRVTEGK", "assay_type": "biochemical"}}, "note": "Calls of active or inactive are those of the source.", "data": [{"smiles": "O=C(NNC(=S)Nc1ccc(Br)cc1)c1cccnc1", "values": [{"measurement": "IC50", "setting": "[1]", "value": "> 122 µM (inactive)"}]}, {"smiles": "COC(=O)c1sc2nc3c(cc2c1N)CCCC3", "values": [{"measurement": "EC50", "setting": "[2]", "value": "> 67.5 µM (inactive)"}]}, {"smiles": "COc1ccc(CC(NC(C)=O)C(=O)N2CCN(C(=O)N(C(C)C)C(C)C)CC2)cc1", "note": "(configuration not stated)", "values": [{"measurement": "AC50", "setting": "[3]", "value": "0.834 µM (active)"}]}, {"smiles": "Fc1cccc(F)c1/C=C/c1ccc2ccccc2n1", "values": [{"measurement": "EC50", "setting": "cells", "value": "> 67.5 µM (inactive)"}, {"measurement": "IC50", "setting": "Protein skinhead-1", "value": "36.8 µM (active)"}, {"measurement": "EC50", "setting": "[4]", "value": "> 67.5 µM (inactive)"}]}, {"smiles": "CC(=O)CC1(O)C(=O)N(Cc2ccccc2)c2ccccc21", "note": "(configuration not stated)", "values": [{"measurement": "AC50", "setting": "[5]", "value": "> 52 µM (inactive)"}]}, {"smiles": "CN(Cc1c(O)ccc2c1oc(=O)c1ccccc12)C1CCCCC1", "values": [{"measurement": "IC50", "setting": "[6]", "value": "7.13 µM (active)"}, {"measurement": "IC50", "setting": "[7]", "value": "5.12 µM (active)"}, {"measurement": "AC50", "setting": "[8]", "value": "4.96 µM (active)"}]}, {"smiles": "Cc1ccc(C(=O)Nc2ncc(Cc3ccc(F)cc3)s2)o1", "values": [{"measurement": "AC50", "setting": "[5]", "value": "12 µM (active)"}]}, {"smiles": "Cc1ccc(-c2nnc(NC3CCCC3)s2)cc1", "values": [{"measurement": "EC50", "setting": "[2]", "value": "> 67.6 µM (inactive)"}]}]}
